Experimental data: patent US11252963B2, “Pesticidally active pyrazole derivatives” (SYNGENTA PARTICIPATIONS AG, priority 2017, dated 2022)
Like-named read-outs stand apart in the source and are kept apart here.

Tests used:
Assay type in all cases: in vivo
[1] = test system: Myzus persicae (Green Peach Aphid); experiment: Myzus persicae (Green Peach Aphid): feeding/contact activity; details: foliar, 144 h
Description: Myzus persicae (Green Peach Aphid): Feeding/Contact Activity
(§1) Sunflower leaf discs were placed onto agar in a 24-well microtiter plate and sprayed with aqueous test solutions prepared from 10,000 ppm DMSO stock solutions. After drying, the leaf discs were infested with an aphid population of mixed ages. The samples were assessed for mortality 6 days after infestation.

[2] = test system: Diabrotica balteata (Corn root worm); experiment: Diabrotica balteata (Corn root worm) mortality test on sprayed maize sprouts; details: 96 h
Description: Diabrotica balteata (Corn root worm):
Maize sprouts placed onto an agar layer in 24-well microtiter plates were treated with aqueous test solutions prepared from 10′000 ppm DMSO stock solutions by spraying. After drying, the plates were infested with L2 larvae (6 to 10 per well). The samples were assessed for mortality 4 days after infestation.

[3] = test system: Thrips tabaci (Onion Thrips); experiment: Thrips tabaci (Onion Thrips): feeding/contact activity; details: foliar, 144 h
Description: Thrips tabaci (Onion Thrips): Feeding/Contact Activity
as §1, with “on” for “onto”, “in” for “in a”, “plates” for “plate”, “10′000” for “10,000”, “drying” for “drying,”, “a thrips” for “an aphid”

[4] = test system: Tetranychus urticae (Two-Spotted Spider Mite); experiment: Tetranychus urticae (Two-Spotted Spider Mite): feeding/contact activity; details: foliar, 192 h, read-out: mortality on mixed population (mobile stages)
Description: Tetranychus urticae (Two-Spotted Spider Mite): Feeding/Contact Activity
Bean leaf discs on agar in 24-well microtiter plates were sprayed with aqueous test solutions prepared from 10′000 ppm DMSO stock solutions. After drying the leaf discs were infested with a mite population of mixed ages. The samples were assessed for mortality on mixed population (mobile stages) 8 days after infestation.

[5] = test system: Plutella xylostella (Diamond Back Moth); experiment: Plutella xylostella (Diamond Back Moth): feeding/contact activity; details: 120 h
Description: Plutella xylostella (Diamond Back Moth): Feeding/Contact Activity
24-well microtiter plates with artificial diet were treated with aqueous test solutions prepared from 10′000 ppm DMSO stock solutions by pipetting. After drying, the plates were infested with L2 larvae (10 to 15 per well). The samples were assessed for mortality 5 days after infestation.

[6] = test system: Spodoptera littoralis (Egyptian Cotton Leaf Worm); experiment: Spodoptera littoralis (Egyptian Cotton Leaf Worm): feeding/contact activity; details: foliar, 72 h
Description: Spodoptera littoralis (Egyptian Cotton Leaf Worm): Feeding/Contact Activity
Cotton leaf discs were placed onto agar in 24-well microtiter plates and sprayed with aqueous test solutions prepared from 10′000 ppm DMSO stock solutions. After drying the leaf discs were infested with five L1 larvae. The samples were assessed for mortality 3 days after infestation.

[7] = test system: Euschistus heros (Neotropical Brown Stink Bug); experiment: Euschistus heros (Neotropical Brown Stink Bug): feeding/contact activity; details: 120 h
Description: Euschistus heros (Neotropical Brown Stink Bug): Feeding/Contact Activity
Soybean leaves on agar in 24-well microtiter plates were sprayed with aqueous test solutions prepared from 10,000 ppm DMSO stock solutions. After drying the leaves were infested with N2 nymphs. The samples were assessed for mortality 5 days after infestation.

[8] = application rate 200 ppm, sunflower leaf discs sprayed, aphid population of mixed ages, assessed 6 days after infestation, read-out: mortality
[9] = application rate 200 ppm, maize sprouts sprayed, L2 larvae, assessed 4 days after infestation, read-out: mortality
[10] = application rate 200 ppm, sunflower leaf discs sprayed, thrips population of mixed ages, assessed 6 days after infestation, read-out: mortality
[11] = application rate 200 ppm, bean leaf discs sprayed, mite population of mixed ages, assessed 8 days after infestation
[12] = application rate 200 ppm, artificial diet treated by pipetting, L2 larvae, assessed 5 days after infestation, read-out: mortality
[13] = application rate 200 ppm, cotton leaf discs sprayed, L1 larvae, assessed 3 days after infestation, read-out: mortality
[14] = application rate 200 ppm, soybean leaves sprayed, N2 nymphs, assessed 5 days after infestation, read-out: mortality

Measured: mortality at 200 ppm

COCN(C(=O)c1cc(-c2cnn(-c3c(OC(F)F)c(C(F)(F)C(F)(F)F)nn3C)c2)ccc1Cl)C1(C#N)CC1 [Compound 1, 2-chloro-N-(1-cyanocyclopropyl)-5-[1-[4-(difluoromethoxy)-2-methyl-5-(1,1,2,2,2-pentafluoroethyl)pyrazol-3-yl]pyrazol-4-yl]-N-(methoxymethyl)benzamide]
≥ 80%: [1]; [8] | [2]; [9] | [3]; [10] | [4]; [11] | [5]; [12] | [6]; [13] | [7]; [14]

C#CCN(C(=O)c1cc(-c2cnn(-c3c(OC(F)F)c(C(F)(F)C(F)(F)F)nn3C)c2)ccc1Cl)C1CC1 [Compound 2, 2-chloro-N-cyclopropyl-5-[1-[4-(difluoromethoxy)-2-methyl-5-(1,1,2,2,2-pentafluoroethyl)pyrazol-3-yl]pyrazol-4-yl]-N-prop-2-ynyl-benzamide]
≥ 80%: [1]; [8] | [2]; [9] | [3]; [10] | [4]; [11] | [5]; [12] | [6]; [13] | [7]; [14]

Cn1nc(C(F)(F)C(F)(F)F)c(OC(F)F)c1-n1cc(-c2ccc(Cl)c(C(=O)N(CC#N)C3(C#N)CC3)c2)cn1 [Compound 3, 2-chloro-N-(1-cyanocyclopropyl)-N-(cyanomethyl)-5-[1-[4-(difluoromethoxy)-2-methyl-5-(1,1,2,2,2-pentafluoroethyl)pyrazol-3-yl]pyrazol-4-yl]benzamide]
≥ 80%: [1]; [8] | [2]; [9] | [3]; [10] | [4]; [11] | [5]; [12] | [6]; [13] | [7]; [14]

CC(C)OC(=O)N(C(=O)c1cc(-c2cnn(-c3c(OC(F)F)c(C(F)(F)C(F)(F)F)nn3C)c2)ccc1Cl)C1(C#N)CC1 [Compound 5, isopropyl N-[2-chloro-5-[1-[4-(difluoromethoxy)-2-methyl-5-(1,1,2,2,2-pentafluoroethyl)pyrazol-3-yl]pyrazol-4-yl]benzoyl]-N-(1-cyanocyclopropyl)carbamate]
≥ 80%: [1] | [2] | [3] | [4] | [5] | [6] | [7]; in Glycine max

CCOC(=O)N(C(=O)c1cc(-c2cnn(-c3c(OC(F)F)c(C(F)(F)C(F)(F)F)nn3C)c2)ccc1Cl)C1(C#N)CC1 [Compound 6, ethyl N-[2-chloro-5-[1-[4-(difluoromethoxy)-2-methyl-5-(1,1,2,2,2-pentafluoroethyl)pyrazol-3-yl]pyrazol-4-yl]benzoyl]-N-(1-cyanocyclopropyl)carbamate]
≥ 80%: [1] | [2] | [3] | [4] | [5] | [6] | [7]; in Glycine max

COC(=O)N(C(=O)c1cc(-c2cnn(-c3c(OC(F)F)c(C(F)(F)C(F)(F)F)nn3C)c2)ccc1Cl)C1(C#N)CC1 [Compound 7, methyl N-[2-chloro-5-[1-[4-(difluoromethoxy)-2-methyl-5-(1,1,2,2,2-pentafluoroethyl)pyrazol-3-yl]pyrazol-4-yl]benzoyl]-N-(1-cyanocyclopropyl)carbamate]
≥ 80%: [1] | [2] | [4] | [5] | [6] | [7]; in Glycine max

CC(=O)N(C(=O)c1cc(-c2cnn(-c3c(OC(F)F)c(C(F)(F)C(F)(F)F)nn3C)c2)ccc1Cl)C1(C#N)CC1 [Compound 8, N-acetyl-2-chloro-N-(1-cyanocyclopropyl)-5-[1-[4-(difluoromethoxy)-2-methyl-5-(1,1,2,2,2-pentafluoroethyl)pyrazol-3-yl]pyrazol-4-yl]benzamide]
≥ 80%: [1]; [8] | [2]; [9] | [4]; [11] | [5]; [12] | [6]; [13] | [7]; [14]

Cn1nc(C(F)(F)C(F)(F)F)c(OC(F)F)c1-n1cc(-c2ccc(Cl)c(C(=O)N(CC3CC3)C3(C#N)CC3)c2)cn1 [Compound 9, 2-chloro-N-(1-cyanocyclopropyl)-N-(cyclopropylmethyl)-5-[1-[4-(difluoromethoxy)-2-methyl-5-(1,1,2,2,2-pentafluoroethyl)pyrazol-3-yl]pyrazol-4-yl]benzamide]
≥ 80%: [1]; [8] | [2]; [9] | [3]; [10] | [4]; [11] | [5]; [12] | [6]; [13] | [7]; [14]

Cn1nc(C(F)(F)C(F)(F)F)c(OC(F)F)c1-n1cc(-c2ccc(Cl)c(C(=O)N(CC(F)(F)F)C3(C#N)CC3)c2)cn1 [Compound 10, 2-chloro-N-(1-cyanocyclopropyl)-5-[1-[4-(difluoromethoxy)-2-methyl-5-(1,1,2,2,2-pentafluoroethyl)pyrazol-3-yl]pyrazol-4-yl]-N-(2,2,2-trifluoroethyl)benzamide]
≥ 80%: [1]; [8] | [2]; [9] | [3]; [10] | [5]; [12] | [6]; [13]

CC(C)CN(C(=O)c1cc(-c2cnn(-c3c(OC(F)F)c(C(F)(F)C(F)(F)F)nn3C)c2)ccc1Cl)C1(C#N)CC1 [Compound 11, 2-chloro-N-(1-cyanocyclopropyl)-5-[1-[4-(difluoromethoxy)-2-methyl-5-(1,1,2,2,2-pentafluoroethyl)pyrazol-3-yl]pyrazol-4-yl]-N-isobutyl-benzamide]
≥ 80%: [1]; [8] | [2]; [9] | [3]; [10] | [5]; [12] | [6]; [13] | [7]; [14]

CC(C)C(=O)N(C(=O)c1cc(-c2cnn(-c3c(OC(F)F)c(C(F)(F)C(F)(F)F)nn3C)c2)ccc1Cl)C1(C#N)CC1 [Compound 12, 2-chloro-N-(1-cyanocyclopropyl)-5-[1-[4-(difluoromethoxy)-2-methyl-5-(1,1,2,2,2-pentafluoroethyl)pyrazol-3-yl]pyrazol-4-yl]-N-(2-methylpropanoyl)benzamide]
≥ 80%: [1]; [8] | [2]; [9] | [4]; [11] | [5]; [12] | [6]; [13] | [7]; [14]

CCOCN(C(=O)c1cc(-c2cnn(-c3c(OC(F)F)c(C(F)(F)C(F)(F)F)nn3C)c2)cnc1Cl)C1(C#N)CC1 [Compound 14, 2-chloro-N-(1-cyanocyclopropyl)-5-[1-[4-(difluoromethoxy)-2-methyl-5-(1,1,2,2,2-pentafluoroethyl)pyrazol-3-yl]pyrazol-4-yl]-N-(ethoxymethyl)pyridine-3-carboxamide]
≥ 80%: [1]; [8] | [2]; [9] | [3]; [10] | [4]; [11] | [5]; [12] | [6]; [13] | [7]; [14]

Cn1nc(C(F)(F)C(F)(F)F)c(OC(F)F)c1-n1cc(-c2cnc(Cl)c(C(=O)N(CC#N)C3(C#N)CC3)c2)cn1 [Compound 15, 2-chloro-N-(1-cyanocyclopropyl)-N-(cyanomethyl)-5-[1-[4-(difluoromethoxy)-2-methyl-5-(1,1,2,2,2-pentafluoroethyl)pyrazol-3-yl]pyrazol-4-yl]pyridine-3-carboxamide]
≥ 80%: [1]; [8] | [2]; [9] | [3]; [10] | [4]; [11] | [5]; [12] | [6]; [13] | [7]; [14]
